In US20110104161A1, “COMBINATIONS VEGF(R) INHIBITORS AND HEPATOCYTE GROWTH FACTOR (C-MET) INHIBITORS FOR THE TREATMENT OF CANCER” (priority 2008, published 2011):

What was measured:
[1] = tested on: U-87 MG human glioblastoma tumor cells; test: U-87 MG glioblastoma subcutaneous xenograft tumor growth in nude mice (Example 2); format: in vivo
Experimental: U-87 MG human glioblastoma tumor cells (from ATCC) were expanded in culture, harvested and injected subcutaneously into 5-8 week old female nude mice (CD1 NU/NU, Charles River Laboratories) (n=10/group). Treatment began on day 14 (average tumor volume 200 mm^3) with a VEGFR inhibitor, AMG 706, by oral gavage (75 mg/kg/dose/once per day) or an HGF/SF:c-Met inhibitor, AMG 102 by intraperitoneal injection, (3 or 10 μg/dose/twice per week) or a combination of AMG 706 and AMG 102 at the same doses and schedules. Vehicle alone (acid water pH 2.0) and IgG2 isotype control antibody (30 μg/dose/twice per week) served as negative controls for the VEFGFR inhibitor and the HGF/SF:c-Met inhibitor, respectively. Progression of tumor growth was followed by three dimensional caliper measurements and recorded as a function of time. Initial statistical analysis was done by repeated measures analysis of variance (ANOVA), followed by Scheffé post hoc testing for multiple comparisons. […] The combination of AMG 706 and AMG 102 provided no additional benefit compared to AMG 102 monotherapy. Body weights were not negatively impacted by any treatment. Arrow and Rx denote start of dosing.

[2] = tested on: 786-0 human renal cell adenocarcinoma cells; test: 786-0-S4 renal cell adenocarcinoma subcutaneous xenograft tumor growth in athymic nude mice (Example 7); format: in vivo; conditions: AMG 706 75 mpk/dose PO, Amgen Compound 3 100 mpk/dose PO, or combination, once daily; p≦0.0322 (AMG 706, combination), p=0.0519 (Amgen Compound 3)
From the text: 786-0-S4 (786-0 human renal cell adenocarcinoma cells from ATCC that were passaged in vivo) were expanded in culture, harvested and injected subcutaneously into 9 week old female athymic nude mice (Harlan Sprague Dawley) (n=10/group). Administration of the VEGFR inhibitor, AMG 706 (75 mpk/dose, PO), or the c-Met inhibitor, Amgen Compound 3 (100 mpk/dose, PO), or a combination of AMG 706 (75 mpk/dose, PO) and Amgen Compound 3 (100 mpk/dose, PO) began on day 20 post tumor cell implantation. AMG 706 was subsequently administered once daily by oral gavage (75 mpk/dose) and Amgen Compound 3 was administered once daily by oral gavage (100 mpk/dose) for the duration of the experiment. Progression of tumor growth was assessed by three dimensional caliper measurements and recorded as a function of time. Statistical analysis was performed by repeated measures analysis of variance (RMANOVA) followed by Scheffe post hoc testing for multiple comparisons. Vehicles (Acid water (pH 2.2) and 2% HPMC 1% Tween 80) served as negative controls for AMG 706 and Amgen Compound 3, respectively. […] Body weights were not negatively impacted by any treatment. Arrow and Rx denote the start of dosing.

Compound	tumor growth compared with vehicle control group ([1]; AMG 706 75 mg/kg once per day oral gavage)	tumor growth compared to the vehicle [2]	tumor growth compared to the isotype control group ([1]; AMG 102 3 or 10 μg per dose twice per week i.p., p<0.0005)
CC1(C)CNc2cc(NC(=O)c3cccnc3NCc3ccncc3)ccc21 [AMG 706, N-(2,3-dihydro-3,3-dimethyl-1H-indol-6-yl)-2-[(4-pyridinylmethyl)amino]-3-pyridinecarboxamide]	no significant effect on tumor growth	significantly inhibited tumor growth	
AMG 102: anti-HGF/SF antibody, identified in US 2005/0118643 and WO 2005/017107 as antibody 2.12.1			significantly inhibited tumor growth
Cc1c(C(=O)Nc2ccc(Oc3ccnc(NC(=O)N4CCOCC4)c3)c(F)c2)c(=O)n(-c2ccccc2)n1C [Amgen Compound 3, N-(4-(4-(1,5-dimethyl-3-oxo-2-phenyl-2,3-dihydro-1H-pyrazole-4-carboxamido)-2-fluorophenoxy)pyridin-2-yl)morpholine-4-carboxamide]		did not significantly inhibit tumor growth	
